Assay results: US20100216823A1 (Pfizer Inc., priority 2007, published 2010)

What was measured:
Type in all cases: biochemical
[1] = target: T1, PDE7A (Homo sapiens, UniProt Q13946); assay: PDE7A [3H]-cAMP scintillation proximity assay (SPA) enzyme inhibition; conditions: for Ki: full length PDE7A in cell lysate, ~25 nM cAMP, Ki from IC50 by Cheng-Prussof equation; for 1C/7A selectivity: ratio PDE1C Ki / PDE7A Ki
T1 construct: cell lysate containing full length PDE7A, PDE7B and PDE1C enzyme; made in house; host or cells: cell lysate
Method: (§1) The ability of the compounds of formula (I) to inhibit PDE7 and PDE1 may be measured using the following assay protocol.
(§2) PDE7A, PDE7B and PDE1C enzymes catalyse the hydrolysis of 3′,5′-cyclic adenosine monophosphate (cAMP) to the 5′ adenosine monophosphate, 5′AMP. In a multiwell plate, PDE enzyme, [^3H]-cAMP and the test compounds, are incubated at room temperature. The incubation is terminated by addition of commercially available yttrium silicate scintillation proximity assay (SPA) beads containing zinc sulphate. The yttrium silicate beads preferentially bind linear nucleotides, thus the product of the enzyme reaction, [^3H]-5′AMP binds to the bead to produce a light signal, which is detected by a scintillation counter. The amount of signal produced directly correlates with the amount of product formed, and thus the activity of the enzyme. The maximum signal is obtained where enzyme and substrate are incubated alone. The background signal is measured from wells either containing no enzyme, or from wells containing a supra-maximal concentration of a known PDE 7A/7B/1C inhibitor. Each purified batch of enzyme is quality controlled and its Km, Vmax and specific activity determined from kinetic studies before use in compound inhibition studies. The inhibition of the enzyme, by a test compound, is calculated relative to the maximum and background responses.
(§3) The compound of Example 75 of WO 02/074754, 5′-carboxypropoxy-8′-chloro-spiro[cyclohexane-1-4′-(3′,4′-dihydro)quinazolin]-2′(1′H)-one (referred to as compound A hereafter) was used as a standard for PDE7A and PDE7B. The compound of Example 32 of WO 02/074754, 4-(8′-chloro-2′-oxo-2′,3′-dihydro-1′H-spiro[cyclohexane-1,4′-quinazolin]-6′-yl)benzoic acid (referred to as compound B hereafter) was used as a standard for PDE1C.
(§4) The optimisation of this assay has been carried out using cell lysate containing full length PDE7A, PDE7B and PDE1C enzyme. The concentration of the enzyme in this cell lysate sample is unknown, so the specific activity of the cell lysate is used as a measure to ensure that the same activity per well is used despite any batch-to-batch variation of concentration/activity.
(§5) PDE7A/7B/1C stock enzyme was prepared and kept at −20° C. in appropriately sized aliquots to reduce the number of freeze/thaw cycles. […] PDE7A is diluted to 1/8000, PDE7B to 1/10000 and PDE1C to 1/200000.
(§6) The final assay [cAMP] of ˜25 nM is required, so ˜50 nM [^3H]-cAMP was prepared. 9 ml of substrate solution was prepared by mixing 10.8 μl of [^3H]-cAMP (available from Amersham) with 8975 μl of assay buffer.
(§7) 1 μl test compound was transferred into a suitable multi-well assay plate immediately prior to reagent assay addition, 14 μl enzyme solution was then added to the assay plate, followed by 15 μl substrate solution (ie: final assay volume 30 μl, with a final screening compound concentration of 1 μM for PDE7A and PDE7B and 10 μM for PDE1C). The plate was then sealed using a plate sealer and incubated at room temperature for 45 min on the plate shaker.
(§8) 30 μl Yttrium Silicate PDE4 SPA beads were then added, ensuring constant stirring of the beads to give even distribution in the assay plate. The plate was then sealed using a plate sealer and incubated at room temperature for 30 mins on the plate shaker. The beads were then allowed to settle for 30 mins, before spinning the plates for 1 min at 200 g.
(§9) The plates were then read on a suitable radioactive counter, for example NXT-TopCount™ (available from Perkin Elmer) using the relevant protocol (30 second read time per well).
(§10) The data was fitted to a sigmoid curve using a least squares algorithm.
(§11) The IC50 value was converted to a value using the Cheng-Prussof equation: […]

[2] = target: T2, PDE7B (Homo sapiens, UniProt Q9NP56); assay: PDE7B [3H]-cAMP scintillation proximity assay (SPA) enzyme inhibition; conditions: for Ki: full length PDE7B in cell lysate, ~25 nM cAMP, Ki from IC50 by Cheng-Prussof equation; for 1C/7B selectivity: ratio PDE1C Ki / PDE7B Ki
T2 construct: cell lysate containing full length PDE7A, PDE7B and PDE1C enzyme; made in house; host or cells: cell lysate
Method: as §1, §2, §3, §4, §5, §6, §7, §8, §9, §10, §11

[3] = target: T3, PDE1C (Homo sapiens, UniProt Q14123); assay: PDE1C [3H]-cAMP scintillation proximity assay (SPA) enzyme inhibition; conditions: full length PDE1C in cell lysate; 75 nM cAMP; Ki from IC50 by Cheng-Prussof equation
T3 construct: cell lysate containing full length PDE7A, PDE7B and PDE1C enzyme; made in house; host or cells: cell lysate
Method: as §1, §2, §3, §4, §5
The final assay [cAMP]=75 nM therefore the required solution [cAMP]=0.15 μM (1/2 dilution in assay plate)
as §7, §8, §9, §10, §11

T2 sequence (Q9NP56 whole entry): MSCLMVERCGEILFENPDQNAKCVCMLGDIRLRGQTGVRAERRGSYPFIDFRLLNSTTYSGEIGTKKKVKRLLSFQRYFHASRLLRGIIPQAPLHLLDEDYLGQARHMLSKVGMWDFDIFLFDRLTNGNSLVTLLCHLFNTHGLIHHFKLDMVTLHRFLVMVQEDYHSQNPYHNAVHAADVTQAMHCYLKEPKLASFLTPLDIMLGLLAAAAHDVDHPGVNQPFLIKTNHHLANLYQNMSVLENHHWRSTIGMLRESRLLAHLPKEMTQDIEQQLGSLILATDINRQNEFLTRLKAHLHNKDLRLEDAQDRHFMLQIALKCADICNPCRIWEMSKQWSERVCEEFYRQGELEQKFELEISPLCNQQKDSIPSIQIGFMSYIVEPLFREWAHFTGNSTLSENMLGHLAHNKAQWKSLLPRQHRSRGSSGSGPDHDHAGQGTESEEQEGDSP
T1 sequence (Q13946 whole entry): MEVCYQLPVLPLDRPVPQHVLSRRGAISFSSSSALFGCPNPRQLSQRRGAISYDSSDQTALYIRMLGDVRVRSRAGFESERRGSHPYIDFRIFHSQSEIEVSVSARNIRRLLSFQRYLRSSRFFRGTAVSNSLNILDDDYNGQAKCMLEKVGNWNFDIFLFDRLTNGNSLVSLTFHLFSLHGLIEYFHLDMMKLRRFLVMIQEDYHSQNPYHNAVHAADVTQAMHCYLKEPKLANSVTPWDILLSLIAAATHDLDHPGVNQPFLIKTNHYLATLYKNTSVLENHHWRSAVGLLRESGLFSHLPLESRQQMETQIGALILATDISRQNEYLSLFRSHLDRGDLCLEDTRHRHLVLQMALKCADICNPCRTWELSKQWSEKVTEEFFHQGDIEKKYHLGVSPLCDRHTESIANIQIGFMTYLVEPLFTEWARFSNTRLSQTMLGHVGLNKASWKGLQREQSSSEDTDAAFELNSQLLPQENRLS
T3 sequence (Q14123 whole entry): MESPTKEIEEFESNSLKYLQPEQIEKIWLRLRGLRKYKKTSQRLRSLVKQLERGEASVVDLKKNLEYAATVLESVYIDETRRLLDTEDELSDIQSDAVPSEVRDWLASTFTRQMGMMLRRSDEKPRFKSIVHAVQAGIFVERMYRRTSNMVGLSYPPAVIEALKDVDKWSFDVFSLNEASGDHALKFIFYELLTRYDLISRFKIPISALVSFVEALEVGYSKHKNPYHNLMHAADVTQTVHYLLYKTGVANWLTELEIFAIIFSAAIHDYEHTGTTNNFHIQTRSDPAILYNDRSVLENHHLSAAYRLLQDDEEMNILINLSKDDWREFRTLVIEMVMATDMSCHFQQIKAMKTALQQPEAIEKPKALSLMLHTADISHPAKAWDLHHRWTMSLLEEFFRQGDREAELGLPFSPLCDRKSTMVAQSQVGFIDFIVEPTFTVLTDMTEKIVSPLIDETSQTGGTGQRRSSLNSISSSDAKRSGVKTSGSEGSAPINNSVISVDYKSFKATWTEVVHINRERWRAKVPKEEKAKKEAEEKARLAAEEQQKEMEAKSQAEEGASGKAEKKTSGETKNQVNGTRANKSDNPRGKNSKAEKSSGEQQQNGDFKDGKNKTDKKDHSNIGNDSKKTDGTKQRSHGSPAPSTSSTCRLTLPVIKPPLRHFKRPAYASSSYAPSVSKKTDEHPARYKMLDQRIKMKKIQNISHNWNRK

Ki [1] [nM] | 1C/7A selectivity [1] | Ki [2] [nM] | 1C/7B selectivity [2] | Ki [3] [nM] | SMILES
1.1 | 85 | 1.6 | 59 | 94 | O=C1Nc2c(Cl)ccc(Oc3c(F)cccc3-c3noc(=O)[nH]3)c2C2(CCCCC2)N1 [Example 18, 8′-chloro-5′-[2-fluoro-6-(5-oxo-4,5-dihydro-1,2,4-oxadiazol-3-yl)phenoxy]-1′H-spiro[cyclohexane-1,4′-quinazolin]-2′(3′H)-one]
2.4 | 301 | 4.4 | 165 | 723 | O=C1Nc2c(Cl)ccc(Oc3c(F)cccc3-c3nn[nH]n3)c2C2(CCCC2)N1 [Example 14, 8′-chloro-5′-[6-fluoro-2-(1H-tetrazol-5-yl)phenoxy]-1′H-spiro[cyclopentane-1,4′-quinazolin]-2′(3′H)-one]
7.5 | 207 | 45 | 35 | 1560 | O=C1Nc2c(Cl)ccc(-c3ccc(F)c(-c4nn[nH]n4)c3)c2C2(CCCCC2)N1 [Example 4]
4.8 | 380 | 9.4 | 192 | 1810 | O=C1Nc2c(Cl)ccc(Oc3c(Cl)cccc3C(=O)O)c2C2(CCCCC2)N1 [Example 8, 3-chloro-2-{(8′-chloro-2′-oxo-2′,3′-dihydro-1′H-spiro[cyclohexane-1,4′-quinazolin]-5′-yl)oxy}benzoic acid]
3.2 | >1750 | 32 | >175 | > 5600 | O=C1Nc2c(Cl)ccc(-c3ccc(F)c(C(=O)O)c3)c2C2(CCCCC2)N1 [Example 1, 5-[(8′-chloro-2′-oxo-2′,3′-dihydro-1′H-spiro[cyclohexane-1,4′-quinazolin]-5′-yl)]-2-fluorobenzoic acid]
6.7 | 45 | 33 | 9.2 | 305 | O=C1Nc2c(Cl)ccc(OCc3ccc(C(=O)O)o3)c2C2(CCCCC2)N1 [Compound C, 5-{[(8′-chloro-2′-oxo-2′,3′-dihydro-1′H-spiro[cyclohexane-1,4′-quinazolin]-5′-yl)oxy]methyl}-2-furoic acid, reference compound]

SMILES | Ki [1] [nM] | 1C/7A selectivity [1] | Ki [2] [nM] | 1C/7B selectivity [2] | Ki [3] [nM]
O=C(O)COc1ccccc1Oc1ccc(Cl)c2c1C1(CCCCC1)NC(=O)N2 [Example 23, {2-[(8′-chloro-2′-oxo-2′,3′-dihydro-1′H-spiro[cyclohexane-1,4′-quinazolin]-5′-yl)oxy]phenoxy}acetic acid] | 0.48 | 121 | 1.9 | 31 | 58
